Assay results taken from patent US7446199B2, “Compositions useful as inhibitors of protein kinases” (Vertex Pharmaceuticals Incorporated, priority 2003, dated 2008).

Experiments:
Assay type in all cases: biochemical
[1] = biological target: c-Met (Homo sapiens, UniProt P08581); assay: Ki determination for the inhibition of c-Met, coupled enzyme system; conditions: 200 μM ATP, 10 μM polyGluTyr, 80 nM c-Met, 30° C.
Procedure: Compounds were screened for their ability to inhibit c-Met kinase activity using a standard coupled enzyme system (Fox et al., Protein Sci. 1998, 7, 2249). Reactions were carried out in a solution containing 100 mM HEPES (pH 7.5), 10 mM MgCl2, 25 mM NaCl, 300 μM NADH, 1 mM DTT, and 1.5% DMSO. Final substrate concentrations in the assay were 200 μM ATP (Sigma Chemicals, St Louis, Mo.) and 10 μM polyGluTyr (Sigma Chemical Company, St. Louis). Reactions were carried out at 30° C. and 80 nM c-Met. Final concentrations of the components of the coupled enzyme system were 2.5 mM phosphoenolpyruvate, 300 μM NADH, 30 μg/ml pyruvate kinase and 10 μg/ml lactate dehydrogenase.
An assay stock buffer solution was prepared containing all of the reagents listed above with the exception of ATP and a test compound of the present invention. The assay stock buffer solution (175 μl) was incubated in a 96 well plate with 5 μl of the test compound of the present invention at final concentrations spanning 0.006 μM to 12.5 μM at 30° C. for 10 minutes. Typically, a 12-point titration was conducted by preparing serial dilutions (from 10 mM compound stocks) with DMSO of the test compounds of the present invention in daughter plates. The reaction was initiated by the addition of 20 μl of ATP (final concentration 200 μM). Rates of reaction were obtained using a Molecular Devices Spectramax plate reader (Sunnyvale, Calif.) over 10 minutes at 30° C. The Ki values were determined from the rate data as a function of inhibitor concentration.

[2] = biological target: T1, JAK3 (Homo sapiens, UniProt P52333); assay: JAK3 inhibition assay (ELISA, Poly (Glu, Ala, Tyr) coated plates); conditions: 2 mM ATP, 60 minutes at 30° C.
T1 sequence (P52333 1-1124): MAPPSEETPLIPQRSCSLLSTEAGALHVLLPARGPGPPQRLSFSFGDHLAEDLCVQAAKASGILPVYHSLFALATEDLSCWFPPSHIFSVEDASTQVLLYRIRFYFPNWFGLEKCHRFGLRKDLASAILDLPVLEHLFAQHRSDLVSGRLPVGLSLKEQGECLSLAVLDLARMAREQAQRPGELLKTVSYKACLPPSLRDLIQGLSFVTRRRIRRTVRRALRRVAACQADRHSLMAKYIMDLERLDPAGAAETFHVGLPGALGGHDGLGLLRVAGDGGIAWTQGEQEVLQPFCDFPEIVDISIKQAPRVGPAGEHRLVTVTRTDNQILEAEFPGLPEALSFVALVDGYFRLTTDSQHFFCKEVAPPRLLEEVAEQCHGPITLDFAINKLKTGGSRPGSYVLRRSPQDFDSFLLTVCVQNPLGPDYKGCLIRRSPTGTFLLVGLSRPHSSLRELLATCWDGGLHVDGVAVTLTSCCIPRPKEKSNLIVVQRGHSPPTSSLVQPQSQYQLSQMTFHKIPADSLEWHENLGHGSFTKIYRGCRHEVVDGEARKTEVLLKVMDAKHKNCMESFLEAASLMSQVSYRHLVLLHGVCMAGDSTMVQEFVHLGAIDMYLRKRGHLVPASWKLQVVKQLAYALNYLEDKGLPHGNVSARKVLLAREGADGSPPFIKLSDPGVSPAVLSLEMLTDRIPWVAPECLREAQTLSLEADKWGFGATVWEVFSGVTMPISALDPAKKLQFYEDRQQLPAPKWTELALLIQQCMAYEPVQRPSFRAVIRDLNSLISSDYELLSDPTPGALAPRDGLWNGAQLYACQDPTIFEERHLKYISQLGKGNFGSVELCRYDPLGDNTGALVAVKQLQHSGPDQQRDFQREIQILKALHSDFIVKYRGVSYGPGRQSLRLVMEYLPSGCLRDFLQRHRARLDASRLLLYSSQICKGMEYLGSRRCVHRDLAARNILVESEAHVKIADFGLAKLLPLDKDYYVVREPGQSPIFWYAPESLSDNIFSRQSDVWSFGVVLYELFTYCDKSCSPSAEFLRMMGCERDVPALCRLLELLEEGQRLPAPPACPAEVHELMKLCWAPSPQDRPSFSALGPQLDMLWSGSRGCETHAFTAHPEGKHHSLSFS
Procedure: Compound inhibition of JAK3 was assayed by the method described by G. R. Brown, et al., Bioorg. Med. Chem. Lett. 2000, vol. 10, pp 575-579 in the following manner. Into Maxisorb plates, previously coated at 4° C. with Poly (Glu, Ala, Tyr) 6:3:1 then washed with phosphate buffered saline 0.05% and Tween (PBST), was added 2 mM ATP, 5 mM MgCl2, and a solution of compound in DMSO. The reaction was started with JAK enzyme and the plates incubated for 60 minutes at 30° C. The plates were then washed with PBST, […] HRP-Conjugated 4G10 antibody was added, and the plate incubated for 90 minutes at 30° C. The plate was again washed with PBST, […] TMB solution is added, and the plates were incubated for another 30 minutes at 30° C. Sulfuric acid ([…] of 1M) was added to stop the reaction and the plate is read at 450 nm to obtain the optical densities for analysis to determine IC50 values.

[3] = biological target: T2, c-KIT (Homo sapiens, UniProt P10721); assay: Inhibition of c-KIT, radiometric filter-binding assay; conditions: 700 μM ATP, 0.5 mg/mL pE4Y, room temperature
T2 construct: 0.02% BSA and 25 nM c-KIT
T2 sequence (P10721 26-976): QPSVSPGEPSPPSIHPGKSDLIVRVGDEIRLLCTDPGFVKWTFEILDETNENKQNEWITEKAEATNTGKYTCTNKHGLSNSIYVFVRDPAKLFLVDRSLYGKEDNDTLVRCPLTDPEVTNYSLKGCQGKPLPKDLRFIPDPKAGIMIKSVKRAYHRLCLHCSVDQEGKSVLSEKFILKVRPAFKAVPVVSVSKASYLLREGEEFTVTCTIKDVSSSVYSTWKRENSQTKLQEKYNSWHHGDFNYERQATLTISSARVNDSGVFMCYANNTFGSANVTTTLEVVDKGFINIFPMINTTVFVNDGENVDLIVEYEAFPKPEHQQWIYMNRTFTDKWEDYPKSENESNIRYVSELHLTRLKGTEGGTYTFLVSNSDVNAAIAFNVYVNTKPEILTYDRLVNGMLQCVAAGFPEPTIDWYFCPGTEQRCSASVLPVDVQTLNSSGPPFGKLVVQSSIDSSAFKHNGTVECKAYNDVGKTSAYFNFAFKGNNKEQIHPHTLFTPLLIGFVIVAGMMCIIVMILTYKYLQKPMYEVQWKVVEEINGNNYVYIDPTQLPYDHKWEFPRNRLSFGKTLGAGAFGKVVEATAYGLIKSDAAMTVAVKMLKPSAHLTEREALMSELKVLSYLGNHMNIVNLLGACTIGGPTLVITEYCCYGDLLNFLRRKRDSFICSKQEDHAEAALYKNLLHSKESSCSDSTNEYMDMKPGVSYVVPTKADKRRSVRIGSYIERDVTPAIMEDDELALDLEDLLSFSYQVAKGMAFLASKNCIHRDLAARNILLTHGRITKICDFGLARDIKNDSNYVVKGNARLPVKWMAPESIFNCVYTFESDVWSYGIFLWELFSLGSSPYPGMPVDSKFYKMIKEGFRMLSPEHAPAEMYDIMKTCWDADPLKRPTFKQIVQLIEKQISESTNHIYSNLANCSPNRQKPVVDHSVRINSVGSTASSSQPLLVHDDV
Procedure: Compounds are screened for their ability to inhibit c-KIT activity using a radiometric filter-binding assay. This assay monitors the ^33P incorporation into a substrate poly(Glu, Tyr) 4:1 (pE4Y). Reactions are carried out in a solution containing 100 mM HEPES (pH 7.5), 10 mM MgCl2, 25 mM NaCl, 1 mM DTT, 0.01% BSA and 2.5% DMSO. Final substrate concentrations in the assay were 700 μM ATP and 0.5 mg/mL pE4Y (both from Sigma Chemicals, St Louis, Mo.). The final concentration of compounds is generally between 0.01 and 5 μM. Typically, a 12-point titration is conducted by preparing serial dilutions from 10 mM DMSO stock of test compound. Reactions were carried out at room temperature.
Two assay solutions are prepared. Solution 1 contains 100 mM HEPES (pH 7.5), 10 mM MgCl2, 25 mM NaCl, 1 mg/ml pE4Y and 1.4 mM ATP(containing 0.5 μCi of [γ-^33P]ATP for each reaction). Solution 2 contains 100 mM HEPES (pH 7.5), 10 mM MgCl2, 25 mM NaCl, 2 mM DTT, 0.02% BSA and 25 nM c-KIT. The assay is run on a 96 well plate by mixing 33 μL of Solution1 and 1.65 μL of the test compounds. The reaction is initiated with 33 μL of Solution2. After incubation for 20 minutes at room temperature, the reaction was stopped with 50 μL of 10% TCA containing 0.2 mM of ATP. All of the reaction volume is then transferred to a filter plate and washed with 5% TCA by a Harvester9600 from TOMTEC (Hamden, Conn.). The amount of ^33P incorporation into pE4y is analyzed by a Packard TopCount Microplate Scintillation Counter (Meriden, Conn.). The data is fitted using Prism software to get an IC50 or Ki.

[4] = biological target: SYK (Homo sapiens, UniProt P43405); assay: SYK enzyme assay, coupled enzyme assay; conditions: 200 μM ATP, 4 μM poly Gly-Tyr peptide, 30° C.
Procedure: Compounds were screened for their ability to inhibit SYK using a standard coupled enzyme assay (Fox et al., Protein Sci. 1998, 7, 2249). Reactions were carried out in 100 mM HEPES (pH 7.5), 10 mM MgCl2, 25 mM NaCl, 1 mM DTT and 1.5% DMSO. Final substrate concentrations in the assay were 200 μM ATP (Sigma chemical Co.) and 4 μM poly Gly-Tyr peptide (Sigma Chemical Co.). Assays were carried out at 30° C. and 200 nM SYK. Final concentrations of the components of the coupled enzyme system were 2.5 mM phosphoenolpyruvate, 300 μM NADH, 30 μg/ml pyruvate kinase and 10 μg/ml lactate dehydrogenase.
An assay stock buffer solution was prepared containing all of the reagents listed above, with the exception of SYK, DTT, and the test compound of interest of the present invention. 56 μl of the test reaction was placed in a 96 well plate followed by the addition of 1 μl of 2 mM DMSO stock containing the test compound of the present invnetion (final compound concentration 30 μM). The plate was pre-incubated for ˜10 minutes at 30° C. and the reaction initiated by the addition of 10 μl of enzyme (final concentration 25 nM). Rates of reaction were obtained using a BioRad Ultramark plate reader (Hercules, Calif.) over a 5 minute read time at 30° C., and Ki values for the compounds of the present invention were determined according to standard methods.

[5] = biological target: GSK-3β, (AA 1-420) (Homo sapiens, UniProt P49841); assay: GSK-3 inhibition assay, coupled enzyme system; conditions: 20 μM ATP, 300 μM peptide, 20 nM GSK-3b, 30° C.; read-out: Ki values (GSK3)
Sequence of GSK-3β, (AA 1-420) (P49841 whole entry, the tested form may be a part): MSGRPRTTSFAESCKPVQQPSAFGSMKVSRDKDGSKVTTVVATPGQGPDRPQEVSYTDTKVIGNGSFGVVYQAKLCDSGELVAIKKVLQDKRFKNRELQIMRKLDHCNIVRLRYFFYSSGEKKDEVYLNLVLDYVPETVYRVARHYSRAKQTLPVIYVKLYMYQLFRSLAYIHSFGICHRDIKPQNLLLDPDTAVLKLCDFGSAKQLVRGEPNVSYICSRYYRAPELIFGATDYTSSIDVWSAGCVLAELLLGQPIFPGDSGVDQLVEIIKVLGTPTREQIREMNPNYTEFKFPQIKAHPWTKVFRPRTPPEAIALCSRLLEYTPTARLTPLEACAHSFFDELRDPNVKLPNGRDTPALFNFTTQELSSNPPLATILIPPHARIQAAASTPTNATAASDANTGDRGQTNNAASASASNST
Procedure: Compounds of the present invention were screened for their ability to inhibit GSK-3β, (AA 1-420) activity using a standard coupled enzyme system (Fox et al., Protein Sci. 1998, 7, 2249). Reactions were carried out in a solution containing 100 mM HEPES (pH 7.5), 10 mM MgCl2, 25 mM NaCl, 300 μM NADH, 1 mM DTT and 1.5% DMSO. Final substrate concentrations in the assay were 20 μM ATP (Sigma Chemicals, St Louis, Mo.) and 300 μM peptide (American Peptide, Sunnyvale, Calif.). Reactions were carried out at 30° C. and 20 nM GSK-3b. Final concentrations of the components of the coupled enzyme system were 2.5 mM phosphoenolpyruvate, 300 μM NADH, 30 μg/ml pyruvate kinase and 10 μg/ml lactate dehydrogenase.
An assay stock buffer solution was prepared containing all of the reagents listed above with the exception of ATP and the test compound of the present invention. The assay stock buffer solution (175 μl) was incubated in a 96 well plate with 5 μl of the test compound of the present invention at final concentrations spanning 0.002 μM to 30 μM at 30° C. for 10 min. Typically, a 12 point titration was conducted by preparing serial dilutions (from 10 mM compound stocks) with DMSO of the test compounds of the present invention in daughter plates. The reaction was initiated by the addition of 20 μl of ATP (final concentration 20 μM). Rates of reaction were obtained using a Molecular Devices Spectramax plate reader (Sunnyvale, Calif.) over 10 min at 30° C. The Ki values were determined from the rate data as a function of inhibitor concentration.

Sequence of c-Met (P08581 25-1390): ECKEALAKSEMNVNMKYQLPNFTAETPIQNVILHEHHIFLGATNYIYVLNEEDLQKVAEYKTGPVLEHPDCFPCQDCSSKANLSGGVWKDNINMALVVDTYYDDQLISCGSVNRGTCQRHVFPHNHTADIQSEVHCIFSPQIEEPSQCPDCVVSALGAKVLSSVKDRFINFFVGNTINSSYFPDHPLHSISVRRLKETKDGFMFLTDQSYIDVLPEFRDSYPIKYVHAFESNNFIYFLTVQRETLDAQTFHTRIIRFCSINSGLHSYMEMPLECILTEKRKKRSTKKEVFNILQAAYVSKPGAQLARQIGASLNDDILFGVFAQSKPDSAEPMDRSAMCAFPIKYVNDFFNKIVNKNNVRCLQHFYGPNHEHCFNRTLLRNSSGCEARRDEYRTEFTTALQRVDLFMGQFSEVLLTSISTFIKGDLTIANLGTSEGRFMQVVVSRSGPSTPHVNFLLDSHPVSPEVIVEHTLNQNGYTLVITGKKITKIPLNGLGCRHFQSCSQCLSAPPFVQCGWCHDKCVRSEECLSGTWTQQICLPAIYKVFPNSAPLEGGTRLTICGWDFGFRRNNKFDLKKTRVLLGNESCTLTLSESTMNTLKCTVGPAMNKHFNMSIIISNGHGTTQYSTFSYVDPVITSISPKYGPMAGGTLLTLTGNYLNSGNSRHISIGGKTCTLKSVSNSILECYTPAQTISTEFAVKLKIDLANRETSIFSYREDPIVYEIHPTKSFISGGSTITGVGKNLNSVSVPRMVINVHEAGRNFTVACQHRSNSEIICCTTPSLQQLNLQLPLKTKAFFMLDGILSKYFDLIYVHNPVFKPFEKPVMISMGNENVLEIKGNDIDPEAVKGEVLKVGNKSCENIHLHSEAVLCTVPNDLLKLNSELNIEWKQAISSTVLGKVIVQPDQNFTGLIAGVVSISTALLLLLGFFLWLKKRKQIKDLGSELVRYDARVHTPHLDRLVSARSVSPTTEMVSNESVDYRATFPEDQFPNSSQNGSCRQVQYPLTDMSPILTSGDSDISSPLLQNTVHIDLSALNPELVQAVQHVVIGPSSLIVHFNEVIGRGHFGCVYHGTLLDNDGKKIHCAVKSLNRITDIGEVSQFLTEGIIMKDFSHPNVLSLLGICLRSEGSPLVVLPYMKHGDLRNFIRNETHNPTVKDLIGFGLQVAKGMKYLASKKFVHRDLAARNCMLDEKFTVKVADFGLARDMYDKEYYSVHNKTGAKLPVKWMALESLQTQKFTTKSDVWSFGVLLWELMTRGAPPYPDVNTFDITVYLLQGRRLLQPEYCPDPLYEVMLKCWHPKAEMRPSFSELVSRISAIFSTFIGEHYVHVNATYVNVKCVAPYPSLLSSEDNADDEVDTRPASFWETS

Ki [1] | Ki [2] | Ki [3] | Ki [4] | Ki [5] | Compound
< 0.2 µM | 0.2 to 1 µM | < 0.2 µM |  |  | CN1CCN(c2ccc(-c3cnc4[nH]cc(-c5nncn5-c5cccc(F)c5F)c4c3)cc2N)CC1 [Compound 129, 5-{3-[4-(2,3-Difluoro-phenyl)-4H-[1,2,4]triazol-3-yl]-1H-pyrrolo[2,3-b]pyridin-5-yl}-2-(4-methyl-piperazin-1-yl)-phenylamine]
1 to 12.5 µM |  |  | 1 to 12.5 µM | 1 to 12.5 µM | Fc1cccc(-c2cnoc2-c2c[nH]c3ccccc23)c1F [Compound 29, 3-[4-(2,3-Difluoro-phenyl)-isoxazol-5-yl]-1H-indole]
< 0.2 µM | 1 to 12.5 µM | 0.2 to 1 µM |  |  | Fc1cccc(-n2cnnc2-c2c[nH]c3ncc(-c4ccc(N5CCC(N6CCCC6)CC5)nc4)cc23)c1F [Compound 123, 5′-{3-[4-(2,3-Difluoro-phenyl)-4H-[1,2,4]triazol-3-yl]-1H-pyrrolo[2,3-b]pyridin-5-yl}-4-pyrrolidin-1-yl-3,4,5,6-tetrahydro-2H-[1,2′]bipyridinyl]
< 0.2 µM | 1 to 12.5 µM | 0.2 to 1 µM |  |  | C[C@@H]1CN(c2ccc(-c3cnc4[nH]cc(-c5nncn5-c5cccc(F)c5F)c4c3)cn2)C[C@H](C)N1 [Compound 122, 3-[4-(2,3-Difluoro-phenyl)-4H-[1,2,4]triazol-3-yl]-5-[6-(3,5-dimethyl-piperazin-1-yl)-pyridin-3-yl]-1H-pyrrolo [2,3-b]pyridine]
